Read-outs that look alike come from different tables or passages of the source.
Tests used:
[1] = target: TR; conditions: known TR inhibitor, quoted for comparison; no reference given; cited from earlier work
[2] = test system: T. cruzi INC-5 epimastigotes; experiment: Viability (MTT) assay on T. cruzi epimastigotes; format: cell-based, Trypanosoma cruzi; conditions: Trypanosoma cruzi, 24 h, mean and SD of triplicate
Description: In this study, two strains of T. cruzi isolated in Mexico were used. […] Epimastigotes were cultured in vitro in liver infusion-tryptose (LIT) medium supplemented with 10% heat inactivated fetal bovine serum (FBS) (Gibco) and 100 U/mL penicillin-streptomycin (In vitro S.A.), and incubated at 27 °C. CD1 mice, aged 6–8 weeks, were infected with T. cruzi to obtain bloodstream trypomastigote samples.
Viability assays of T. cruzi epimastigotes using 3-(4,5-dimethylthiazol-2-yl)-2,5-diphenyltetrazolium bromide (MTT) were performed. Briefly, the parasites were harvested during the exponential growth phase for a period of five days. In a 96-well microplate 1x10^6 epimastigotes were deposited in brain-heart infusion (BHI) medium supplemented with 10% FBS and 100 U/mL antibiotic-antifungal mixture (Gibco). […] Each well reached a final volume of 100 µL. Each condition was assessed in triplicate. The microplate was incubated for 24 h at 27 °C in darkness. Afterwards, 10 μL of a 5 mg/mL MTT solution was added and the plate was incubated for 20 h at 27 °C. Then 200 μL of 10% dodecyl sulfate (SDS)/0.1% HCl solution was added to dissolve formazan salts; the plate was incubated an additional 4 h. Finally, the plate was read at 570 nm in a spectrophotometer (Multiskan EX Thermo Electron, Taipei, Taiwan). The amount of viable cells was proportional to the amount of formazan produced. […] Later the results were converted to micromolar units. […] As a […] control, parasites were incubated only in culture medium with a 1% DMSO concentration, corresponding to the highest sample dilution of DMSO [34, 35, 36].

[3] = Cytotoxicity assay (Alamar Blue) on macrophages; format: cell-based, murine; conditions: mouse, J774A.1 macrophages, mean and SD of triplicate
Description: The murine macrophage cell line J774.A1 was maintained in culture flasks with RPMI 1640 medium supplemented with 10% FBS, 1% MEM-NEAA medium (Gibco) and 100 U/mL antibiotic-antifungal mixture (Gibco). Cells were incubated at 37 °C with 5% CO2 and humidity. Trypsinized J774.A1 macrophages were washed and viability was assessed by the trypan blue dye (Sigma-Aldrich, Toluca, Edo de Mexico, Mexico) exclusion assay. In a 96-well microplate, 50,000 macrophages were seeded per well and a dose-response assay was performed. Compounds were evaluated using six-fold serial dilutions ranging from 100 µg/mL to 0.3 µg/mL of final concentration. Each compound was tested in triplicate. After 20 h incubation, Alamar Blue was added (10% v/v) and cells were incubated for an additional 4 h period. Results were obtained as previously described and CC50 was calculated. As a negative control of cytotoxicity, cells were incubated only in the presence of 0.1% DMSO [39, 40].

[4] = test system: T. cruzi bloodstream trypomastigotes INC-5 strain; experiment: microbe, parasite or virus in culture; format: cell-based; conditions: Trypanosoma cruzi; 50 μg/mL, 24 h at 4 °C, infected mouse blood; read-out: % Lysis at 50 μg/mL INC-5 Strain
Description: (§1) In this study, two strains of T. cruzi isolated in Mexico were used. T. cruzi NINOA strain (MHOM/MX/1994/NINOA) was obtained from a patient with acute Chagas disease and T. cruzi INC-5 (MHOM/MX/1994/INC5) was isolated from a patient in the chronic phase of the disease. Epimastigotes were cultured in vitro in liver infusion-tryptose (LIT) medium supplemented with 10% heat inactivated fetal bovine serum (FBS) (Gibco) and 100 U/mL penicillin-streptomycin (In vitro S.A.), and incubated at 27 °C. CD1 mice, aged 6–8 weeks, were infected with T. cruzi to obtain bloodstream trypomastigote samples. Animal experiments were performed according to Norma Oficial Mexicana (NOM-062-Z00-1999) published on 22 August, 2009.
(§2) CD1 female mice 6–8 weeks old were infected with T. cruzi bloodstream trypomastigotes of the INC-5 and NINOA strains. The course of infection continued for 4–6 weeks. At the peak of parasitemia blood was obtained by cardiac puncture using sodium heparin as an anticoagulant. The blood was adjusted to 1 × 10^6 bloodstream trypomastigotes/mL.
(§3) In each well of the 96-well plate, 195 μL of infected blood and 5 μL of quinoxaline 1,4-di-N-oxide derivatives or reference drug dilutions were seeded, with each well reaching a final volume of 200 µL. Each assay was performed in triplicate. Initially, all compounds were tested at 50 μg/mL. […] As a negative control of lysis, wells with untreated blood trypomastigotes were used, and as a positive control, wells with the reference drugs were used. The microplates were incubated at 4 °C for 24 h. Bloodstream trypomastigotes were quantified by the method of Brener-Pizzi, 5 μL of blood were placed on a slide and covered with a coverslip 13 × 13 mm. The mobile protozoa were counted in 15 fields at 40× magnification using an optical microscope. The percentage lysis was determined by comparing the remaining trypomastigotes against the negative control. LC50 was determined with the Probit statistical tool. The results were later converted to micromolar units.

[5] = test system: T. cruzi bloodstream trypomastigotes NINOA strain; experiment: microbe, parasite or virus in culture; format: cell-based; conditions: Trypanosoma cruzi; 50 μg/mL, 24 h at 4 °C, infected mouse blood; read-out: % Lysis at 50 μg/mL NINOA Strain
Description: as §1, §2, §3

[6] = target: T1, recombinant T. cruzi TR (Trypanosoma cruzi, UniProt P28593); experiment: TR enzyme inhibition (NADPH consumption at 340 nm); format: biochemical; conditions: for inhibitory activity on TR: even when tested at 100 μM, 100 μM or 40 μM TS2; for inhibition at 40 µM: inhibitor 40 µM; for inhibition at 100 µM: inhibitor 100 µM; for inhibition at 20 µM: inhibitor 20 µM; for inhibition at 60 µM: inhibitor 60 µM; for inhibition at 80 µM: inhibitor 80 µM, T-085 precipitates in the assay at 80 µM
T1 construct: made in house
Description: Trypanothione disulfide (TS2) and recombinant T. cruzi TR were prepared following published procedures. Recombinant human glutathione reductase (GR) was kindly provided by Dr. Heiner Schirmer, Heidelberg Germany. Stock solutions (5 mM) of the inhibitors were prepared in DMSO. The kinetic analyses were conducted using a Jasco V650 spectrophotometer. All enzymatic tests were performed in polystyrene optical cuvettes (10 × 4 × 45 mm). TR activity was measured at 25 °C in a total volume of 1 mL TR assay buffer (40 mM HEPES, 1 mM EDTA, pH 7.5 [47]) containing 100 μM NADPH and 5–10 mU enzyme in the absence and presence of the inhibitor. Each assay contained a total of 5% DMSO. The reaction was started by adding TS2 and NADPH consumption was followed at 340 nm.
Five compound concentrations were used ranging from 100–5 μM. All measurements were performed twice in three independent series. Enzyme activity was plotted versus increasing inhibitor concentrations. IC50 values were calculated using the four-parameter equation model 205 and the option “unlock” from the XLfit add-in (IDBS, Guildford, United Kingdom) for Excel (Microsoft Corporation, Redmond, WA, USA).
The type of inhibition and the inhibitor constants were derived from Lineweaver-Burk plot. The activity of TR was measured in the absence and presence of two to three constant concentrations of inhibitor varying the concentration of TS2 (20, 40, 60, 100 and 200 µM). The inhibitory constant Ki was calculated from the direct plot using nonlinear least-squares data fitting in Excel spreadsheet.

[7] = test system: bloodstream trypomastigotes NINOA and INC-5 of T. cruzi; design: method as in PMID 24691716; conditions: 5 µg/mL (M2 = 14.73 µM, M8 = 17.98 µM, M6 = 14.91 µM); NINOA and INC-5 bloodstream trypomastigotes; cited from earlier work
[8] = 40 µM TS2, read-out: % Inhibition of TR at 40 µM [TS2]
[9] = 100 µM TS2, read-out: % Inhibition of TR at 100 µM [TS2]

T1 sequence (P28593 whole entry): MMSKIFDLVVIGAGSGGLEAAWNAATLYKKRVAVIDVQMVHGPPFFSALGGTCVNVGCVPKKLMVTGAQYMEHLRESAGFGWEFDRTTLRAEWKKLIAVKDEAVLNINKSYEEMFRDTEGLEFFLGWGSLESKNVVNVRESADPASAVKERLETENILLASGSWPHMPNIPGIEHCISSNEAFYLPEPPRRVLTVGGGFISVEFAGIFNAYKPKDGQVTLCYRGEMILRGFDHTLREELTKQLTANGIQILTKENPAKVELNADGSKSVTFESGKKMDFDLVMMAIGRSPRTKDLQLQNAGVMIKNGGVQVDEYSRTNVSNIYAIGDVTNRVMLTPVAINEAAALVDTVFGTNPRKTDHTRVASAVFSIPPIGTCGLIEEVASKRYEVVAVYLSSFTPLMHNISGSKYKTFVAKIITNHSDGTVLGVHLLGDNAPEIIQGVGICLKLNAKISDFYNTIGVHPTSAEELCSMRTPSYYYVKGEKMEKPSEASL

SMILES | IC50 [2] [µM] | CC50 at 24 h [3] [µM] | killing at 50 µg/mL [4] [%] | killing at 50 µg/mL [5] [%] | inhibition at 40 µM [6, 8] [%] | inhibition at 40 µM [6, 9] [%] | inhibition at 100 µM [6, 8] [%] | inhibition at 100 µM [6, 9] [%] | % lysis at 5 µg/mL [7] | further results
CCN(CC)CCCC(C)Nc1c2ccc(Cl)cc2nc2ccc(OC)cc12 (stereo not shown) [mepacrine] |  |  |  |  |  |  |  |  |  | Ki [1]: 19 µM
Cc1c(C(=O)c2ccccc2)[n+]([O-])c2cc(C(=O)OC(C)C)ccc2[n+]1[O-] [Compound T-098, Isopropyl 2-benzoyl-3-methylquinoxaline-7-carboxylate 1,4-di-N-oxide] | 142 ± 8.3 | 140 ± 8.1 | 0.34 ± 0.6 | 6.89 ± 5.8 |  |  |  |  |  | 
COC(=O)c1ccc2c(c1)[n+]([O-])c(C(N)=O)c(C)[n+]2[O-] [Compound T-044] |  |  |  |  | 0 | 0 | 0 | 0 | about 50% | inhibitory activity on TR [6]: no or negligible inhibitory activity
CC(=O)c1c(C(F)(F)F)[n+]([O-])c2ccc(C(=O)OC(C)C)cc2[n+]1[O-] [Compound T-070, Isopropyl 2-acetyl-3-trifluoromethylquinoxaline-7-carboxylate 1,4-di-N-oxide] | 2.83 ± 0.7 | 17.5 ± 0.7 | 10.8 ± 5.4 | 46 ± 2.7 |  |  |  |  |  | 
CCOC(=O)Cc1c(C(=O)OCC)[n+]([O-])c2cc(C(=O)OC(C)C)ccc2[n+]1[O-] [Compound T-067, Isopropyl ethyl-3-(2-ethoxy-2-oxoethyl) quinoxaline-2,7-dicarboxylate 1,4-di-N-oxide] | 12.1 ± 0.4 | 44.4 ± 7.1 | 14.4 ± 9.2 | 18.5 ± 2.2 |  |  |  |  |  | 
CCOC(=O)c1c(C(F)(F)F)[n+]([O-])c2ccc(C(=O)OC(C)C)cc2[n+]1[O-] [Compound T-116, Isopropyl ethyl-3-trifluoromethylquinoxaline-2,7-dicarboxylate 1,4-di-N-oxide] | 5.2 ± 2.1 | 14.5 ± 0.8 | 17.6 ± 2.6 | 49.9 ± 4 |  |  |  |  |  | 
COC(=O)c1ccc2c(c1)[n+]([O-])c(C(=O)c1ccccc1)c(C)[n+]2[O-] [Compound T-003] |  |  |  |  | 9 | 10 | 23.8 | 19.3 | about 50% | inhibition at 20 µM [6, 8]: 6.6%; inhibition at 20 µM [6, 9]: 6%; inhibition at 60 µM [6, 8]: 14.8%; inhibition at 60 µM [6, 9]: 12%; inhibition at 80 µM [6, 8]: 20.5%; inhibition at 80 µM [6, 9]: 18%
COC(=O)c1ccc2c(c1)[n+]([O-])c(C(=O)OC(C)(C)C)c(C)[n+]2[O-] [Compound T-021] |  |  |  |  | 0 | 0 | 7.5 | 0 | about 50% | inhibitory activity on TR [6]: no or negligible inhibitory activity
